Data published in ChEMBL document CHEMBL5715937, “In vitro activity of Bcr-Abl inhibitors AMN107 and BMS-354825 against clinically relevant imatinib-resistant Abl kinase domain mutants” (Cancer Res, 2005).
Calls of active or inactive are those of the source. The rule behind the calls is not given here.

Tests used:
[1] = Inhibition of BCR-ABL E255V mutant (unknown origin) expressed in mouse BaF3 cells assessed as inhibition of cell growth incubated for 72 hrs by […] CellTiter96 viability analysis; settings: for IC50: BaF3, 72 h
cells [2] = settings: Mus musculus, BaF3, 3 h
cells [3] = settings: Mus musculus, BaF3, 3 h; remark: listed apart in the source
cells [4] = settings: Mus musculus, BaF3, 3 h; remark: listed apart in the source
[5] = Inhibition of BCR-ABL F311L mutant (unknown origin) expressed in mouse BaF3 cells assessed as inhibition of cell growth incubated for 72 hrs by […] CellTiter96 viability analysis; settings: for IC50: BaF3, 72 h
[6] = Inhibition of BCR-ABL L387M mutant (unknown origin) expressed in mouse BaF3 cells assessed as inhibition of cell growth incubated for 72 hrs by […] CellTiter96 viability analysis; settings: for IC50: BaF3, 72 h
cells [7] = settings: Mus musculus, BaF3, 3 h; remark: listed apart in the source
[8] = Inhibition of BCR-ABL Q252H mutant (unknown origin) expressed in mouse BaF3 cells assessed as inhibition of cell growth incubated for 72 hrs by […] CellTiter96 viability analysis; settings: for IC50: BaF3, 72 h
cells [9] = settings: Mus musculus, BaF3, 3 h; remark: listed apart in the source
cells [10] = settings: Mus musculus, BaF3, 3 h; remark: listed apart in the source
[11] = Cytotoxicity against mouse BaF3 cells assessed as reduction in cell proliferation incubated for 72 hrs by […] CellTiter96 viability analysis; format: toxicity
cells [12] = settings: Mus musculus, BaF3, 3 h; remark: listed apart in the source
[13] = Inhibition of BCR-ABL Y253H mutant (unknown origin) expressed in mouse BaF3 cells assessed as inhibition of cell growth incubated for 72 hrs by […] CellTiter96 viability analysis; settings: for IC50: BaF3, 72 h
[14] = Inhibition of BCR-ABL V379l mutant (unknown origin) expressed in mouse BaF3 cells assessed as inhibition of cell growth incubated for 72 hrs by […] CellTiter96 viability analysis; settings: for IC50: BaF3, 72 h
[15] = Inhibition of BCR-ABL F359V mutant (unknown origin) expressed in mouse BaF3 cells assessed as inhibition of cell growth incubated for 72 hrs by […] CellTiter96 viability analysis; settings: for IC50: BaF3, 72 h
cells [16] = settings: Mus musculus, BaF3, 72 h
cells [17] = settings: Mus musculus, BaF3, 3 h; remark: listed apart in the source
[18] = Inhibition of BCR-ABL E255K mutant (unknown origin) expressed in mouse BaF3 cells assessed as inhibition of cell growth incubated for 72 hrs by […] CellTiter96 viability analysis; settings: for IC50: BaF3, 72 h
[19] = Inhibition of BCR-ABL M351T mutant (unknown origin) expressed in mouse BaF3 cells assessed as inhibition of cell growth incubated for 72 hrs by […] CellTiter96 viability analysis; settings: for IC50: BaF3, 72 h
cells [20] = settings: Mus musculus, BaF3, 3 h; remark: listed apart in the source
[21] = Inhibition of BCR-ABL M244V mutant (unknown origin) expressed in mouse BaF3 cells assessed as inhibition of cell growth incubated for 72 hrs by […] CellTiter96 viability analysis; settings: for IC50: BaF3, 72 h
cells [22] = settings: Mus musculus, BaF3, 3 h; remark: listed apart in the source
cells [23] = settings: Mus musculus, BaF3, 3 h; remark: listed apart in the source
[24] = Inhibition of BCR-ABL H396P mutant (unknown origin) expressed in mouse BaF3 cells assessed as inhibition of cell growth incubated for 72 hrs by […] CellTiter96 viability analysis; settings: for IC50: BaF3, 72 h
[25] = Inhibition of BCR-ABL Y253F mutant (unknown origin) expressed in mouse BaF3 cells assessed as inhibition of cell growth incubated for 72 hrs by […] CellTiter96 viability analysis; settings: for IC50: BaF3, 72 h
[26] = Inhibition of BCR-ABL F317L mutant (unknown origin) expressed in mouse BaF3 cells assessed as inhibition of cell growth incubated for 72 hrs by […] CellTiter96 viability analysis; settings: for IC50: BaF3, 72 h
[27] = Inhibition of BCR-ABL H396R mutant (unknown origin) expressed in mouse BaF3 cells assessed as inhibition of cell growth incubated for 72 hrs by […] CellTiter96 viability analysis; settings: for IC50: BaF3, 72 h
cells [28] = settings: Mus musculus, BaF3, 3 h; remark: listed apart in the source
[29] = Inhibition of BCR-ABL G250E mutant (unknown origin) expressed in mouse BaF3 cells assessed as inhibition of cell growth incubated for 72 hrs by […] CellTiter96 viability analysis; settings: for IC50: BaF3, 72 h
[30] = Inhibition of BCR-ABL phosphorylation in mouse BaF3 cells incubated for 3 hrs by immunoblotting analysis; format: functional, cell-based
[31] = Inhibition of BCR-ABL V379l mutant (unknown origin) expressed in mouse BaF3 cells assessed as inhibition of tyrosine phosphorylation incubated for 3 hrs by immunoblotting analysis; format: cell-based; settings: BaF3, 3 h
[32] = Inhibition of BCR-ABL H396P mutant (unknown origin) expressed in mouse BaF3 cells assessed as inhibition of tyrosine phosphorylation incubated for 3 hrs by immunoblotting analysis; format: cell-based; settings: BaF3, 3 h
BaF3 = test: Induction of apoptosis in mouse BaF3 cells expressing Bcr-Abl T315I mutant at 300 to 1500 nM incubated for 72 hrs by Annexin V-phycoerythrin and 7-amino-actinomycin D staining based PCA instrument analysis relative to control; format: functional, cell-based; settings: dose 300-1500 nM
[33] = Inhibition of BCR-ABL L387M mutant (unknown origin) expressed in mouse BaF3 cells assessed as inhibition of tyrosine phosphorylation incubated for 3 hrs by immunoblotting analysis; format: cell-based; settings: BaF3, 3 h
[34] = Inhibition of BCR-ABL F311L mutant (unknown origin) expressed in mouse BaF3 cells assessed as inhibition of tyrosine phosphorylation incubated for 3 hrs by immunoblotting analysis; format: cell-based; settings: BaF3, 3 h
[35] = BaF3, time 72 hrs, condition chronic myelogenous leukemia

`Cc1nc(Nc2ncc(C(=O)Nc3c(C)cccc3Cl)s2)cc(N2CCN(CCO)CC2)n1` [DASATINIB ANHYDROUS] showed an IC50 [1] of 11 nM, an IC90 [1, 35] of 27 nM and an IC50 (cells [2]) of 10 nM. The IC50 (cells [3]) was less than 10 nM, the IC50 (cells [4]) was 10 nM and the IC50 [5] was 1.3 nM. For the same compound, the IC90 [5, 35] was 2.8 nM, the IC50 [6] was 2 nM and the IC90 [6, 35] was 4 nM. It also gave an IC50 (cells [7]) greater than 1000 nM, an IC50 [8] of 3.4 nM and an IC90 [8, 35] of 11.2 nM. The IC50 (cells [9]) was less than 10 nM, the IC50 (cells [10]) was less than 10 nM and the IC50 at 72 h [11] was greater than 200 nM. It also gave an IC50 (cells [12]) of less than 10 nM, an IC50 [13] of 1.3 nM and an IC90 [13, 35] of 3 nM. It also gave an IC50 [14] of 0.8 nM, an IC90 [14, 35] of 1.6 nM and an IC50 [15] of 2.2 nM. The IC90 [15, 35] was 4.8 nM, the IC50 (cells [16]) was greater than 200 nM and the IC50 (cells [17]) was less than 10 nM. For the same compound, the IC50 [18] was 5.6 nM, the IC90 [18, 35] was 12.8 nM and the IC50 [19] was 1.1 nM. For the same compound, the IC90 [19, 35] was 3 nM, the IC50 (cells [20]) was 10 nM and the IC50 [21] was 1.3 nM. For the same compound, the IC90 [21, 35] was 1.8 nM, the IC50 (cells [22]) was less than 10 nM and the IC50 (cells [23]) was less than 10 nM. For the same compound, the IC50 [24] was 0.6 nM, the IC90 [24, 35] was 1.2 nM and the IC50 [25] was 1.4 nM. It also gave an IC90 [25, 35] of 3 nM, an IC50 [26] of 7.4 nM and an IC90 [26, 35] of 15 nM. For the same compound, the IC50 [27] was 1.3 nM, the IC90 [27, 35] was 2.7 nM and the IC50 (cells [28]) was less than 10 nM. It also gave an IC50 [29] of 1.8 nM and an IC90 [29, 35] of 3 nM.
In the case of `Cc1ccc(NC(=O)c2ccc(CN3CCN(C)CC3)cc2)cc1Nc1nccc(-c2cccnc2)n1` [IMATINIB], the IC50 [1] is reported as greater than 6400 nM, the IC50 (cells [2]) is reported as 5000 nM and the IC50 [30] is reported as “Not Active”. The IC50 (cells [3]) was greater than 5000 nM, the IC50 (cells [4]) was 1000 nM and the IC50 [5] was 480 nM. For the same compound, the IC50 [6] was 1000 nM, the IC50 (cells [7]) was greater than 5000 nM and the IC50 [8] was 1320 nM. The IC50 (cells [9]) was 1500 nM, the IC50 (cells [10]) was greater than 5000 nM and the IC50 [31] was 800 nM. It also gave an IC50 at 72 h [11] greater than 6400 nM, an IC50 (cells [12]) of 500 nM and an IC50 [13] greater than 6400 nM. It also gave an IC50 [14] of 1630 nM, an IC50 [15] of 1820 nM and an IC50 [32] of 2700 nM. For the same compound, the IC50 (cells [16]) was greater than 6400 nM, the Activity (BaF3) was “inactive” and the IC50 (cells [17]) was 500 nM. The IC50 [33] was 2700 nM, the IC50 [18] was 5200 nM and the IC50 [19] was 880 nM. It also gave an IC50 (cells [20]) of 3100 nM, an IC50 [21] of 2000 nM and an IC50 (cells [22]) of 1000 nM. For the same compound, the IC50 (cells [23]) was 4200 nM, the IC50 [24] was 850 nM and the IC50 [34] was 600 nM. The IC50 [25] was 3480 nM, the IC50 [26] was 1050 nM and the IC50 [27] was 1750 nM. It also gave an IC50 (cells [28]) of 400 nM and an IC50 [29] of 1350 nM.
